Data from PubChem BioAssay (NCI).
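48-hour exposure; five concentrations; linearly interpolated endpoints. GI50: concentration for 50% inhibition of growth. TGI is the concentration that stops growth completely.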

Columns and labels:
Assay in all cases: NCI-60 cell line screen, 48 h
[1] = system: 786-0 renal
[2] = system: A498 renal
[3] = system: A549 NSCLC
[4] = system: ACHN renal
[5] = system: BT-549 breast
[6] = system: CAKI-1 renal
[7] = system: CCRF-CEM leukemia
[8] = system: DU-145 prostate
[9] = system: EKVX NSCLC
[10] = system: HCC-2998 colon
[11] = system: HCT-116 colon
[12] = system: HCT-15 colon
[13] = system: HL-60(TB) leukemia
[14] = system: HOP-62 NSCLC
[15] = system: HOP-92 NSCLC
[16] = system: HS 578T breast
[17] = system: HT29 colon
[18] = system: IGROV1 ovarian
[19] = system: K-562 leukemia
[20] = system: KM12 colon
[21] = system: LOX IMVI melanoma
[22] = system: MALME-3M melanoma
[23] = system: MCF7 breast
[24] = system: MDA-MB-231 breast
[25] = system: MOLT-4 leukemia
[26] = system: NCI-H226 lung
[27] = system: NCI-H23 lung
[28] = system: NCI-H460 lung
[29] = system: NCI-H522 lung
[30] = system: NCI/ADR-RES ovarian
[31] = system: OVCAR-3 ovarian
[32] = system: OVCAR-4 ovarian
[33] = system: OVCAR-8 ovarian
[34] = system: PC-3 prostate
[35] = system: RPMI-8226 leukemia
[36] = system: RXF 393 renal
[37] = system: SF-295 CNS
[38] = system: SF-539 CNS
[39] = system: SK-MEL-2 melanoma
[40] = system: SK-MEL-28 melanoma
[41] = system: SK-MEL-5 melanoma
[42] = system: SK-OV-3 ovarian
[43] = system: SNB-19 CNS
[44] = system: SR leukemia
[45] = system: SW-620 colon
[46] = system: T-47D breast
[47] = system: TK-10 renal
[48] = system: U251 CNS
[49] = system: UACC-257 melanoma
[50] = system: UACC-62 melanoma
[51] = system: UO-31 renal

## CN(C)c1ccc(/C=N/Nc2nc(N/N=C/c3ccc(N(C)C)cc3)nc(N3CCCCC3)n2)cc1
[1]
  GI50: 1.7 µM
  TGI: 3.62 µM
[2]
  GI50: 1.58 µM
  TGI: 3.51 µM
[3]
  GI50: 2.99 µM
  TGI: > 100 µM
[4]
  GI50: 2.68 µM
  TGI: 7.68 µM
[5]
  GI50: 15.5 µM
  TGI: 58.6 µM
[6]
  GI50: 2.08 µM
  TGI: 5.02 µM
[7]
  GI50: 1.21 µM
  TGI: > 100 µM
[8]
  GI50: 3.92 µM
  TGI: > 100 µM
[9]
  GI50: 3.13 µM
  TGI: > 100 µM
[10]
  GI50: 2.4 µM
  TGI: 6.67 µM
[11]
  GI50: 1.64 µM
  TGI: 3.75 µM
[12]
  GI50: 1.87 µM
  TGI: 4.62 µM
[13]
  GI50: 2.2 µM
  TGI: 6.71 µM
[14]
  GI50: 2.19 µM
  TGI: 5.05 µM
[15]
  GI50: 1.47 µM
  TGI: 3.25 µM
[16]
  GI50: 2.09 µM
  TGI: 5.57 µM
[17]
  GI50: 1.76 µM
  TGI: 3.36 µM
[18]
  GI50: 2.96 µM
  TGI: > 100 µM
[19]
  GI50: 0.895 µM
  TGI: > 100 µM
[20]
  GI50: 2.84 µM
  TGI: 8.49 µM
[21]
  GI50: 1.61 µM
  TGI: 3.19 µM
[22]
  GI50: 1.86 µM
  TGI: 3.4 µM
[23]
  GI50: 2.86 µM
  TGI: > 100 µM
[24]
  GI50: 1.8 µM
  TGI: 3.4 µM
[25]
  GI50: 2.87 µM
  TGI: > 100 µM
[26]
  GI50: 2.19 µM
  TGI: 5.64 µM
[27]
  GI50: 3.49 µM
  TGI: > 100 µM
[28]
  GI50: 3.21 µM
  TGI: > 100 µM
[29]
  GI50: 2.06 µM
  TGI: 4.56 µM
[30]
  GI50: 3.19 µM
  TGI: 17 µM
[31]
  GI50: 2.28 µM
  TGI: 5.03 µM
[32]
  GI50: 5.03 µM
  TGI: > 100 µM
[33]
  GI50: 3.21 µM
  TGI: > 100 µM
[34]
  GI50: 2.57 µM
  TGI: 7.91 µM
[35]
  GI50: 1.92 µM
  TGI: 5.1 µM
[36]
  GI50: 2.12 µM
  TGI: 6.12 µM
[37]
  GI50: 1.96 µM
  TGI: 3.79 µM
[38]
  GI50: 1.99 µM
  TGI: 3.97 µM
[39]
  GI50: 1.99 µM
  TGI: 3.72 µM
[40]
  GI50: 2 µM
  TGI: 4.35 µM
[41]
  GI50: 1.73 µM
  TGI: 3.15 µM
[42]
  GI50: 2.17 µM
  TGI: 4.88 µM
[43]
  GI50: 3.33 µM
  TGI: > 100 µM
[44]
  GI50: 0.369 µM
  TGI: > 100 µM
[45]
  GI50: 3.17 µM
  TGI: > 100 µM
[46]
  GI50: 2.18 µM
  TGI: 5.54 µM
[47]
  GI50: 2.54 µM
  TGI: 7.28 µM
[48]
  GI50: 2.88 µM
  TGI: 14.3 µM
[49]
  GI50: 1.83 µM
  TGI: 3.67 µM
[50]
  GI50: 1.84 µM
  TGI: 3.78 µM
[51]
  GI50: 1.72 µM
  TGI: 3.7 µM
